Our source for the IC50 values is US10927111B2, “Inhibitors of RAF kinases” (Kinnate Biopharma Inc., priority 2019, dated 2021).

The target of the assay is human RAF1 (Homo sapiens (Human), UniProt P04049). Kind of assay: Protein kinase assay (radiometric 33P-ATP, MEK1 (K97R) substrate). Format: biochemical. As to conditions: read-out: RAF-1 IC50. On the procedure:
Protein kinase assay: Assay platform was used to measure kinase/inhibitor interactions as described previously (Anastassiadis et al., 2011). In brief, for each reaction, kinase and substrate were mixed in a buffer containing 20 mM HEPES (pH 7.5), 10 mM MgCl2, 1 mM EGTA, 0.02% Brij35, 0.02 mg/mL BSA, 0.1 mM Na3VO4, 2 mM DTT, and 1% DMSO. All compounds were solubilized in DMSO. Compounds were then added to each reaction mixture via acoustic dispense using an ECHO 550 nanoliter dispenser. For human RAF1 testing, human MEK1 (K97R) was used as a substrate at a concentration of 3 micromolar, with a final ATP concentration of 10 micromolar. For human BRAF testing, human MEK1 (K97R) was used as a substrate at 1 micromolar concentration, with a final ATP concentration of 25 micromolar. […] After a 20-min incubation, ATP (Sigma-Aldrich, St. Louis, Mo. 63178) and [g33P] ATP (specific activity 10 microCi/microliter) purchased at PerkinElmer (Boston, Mass., 02118 Cat #BLU 003H250UC) were added at a final total concentration of 10 mM. Reactions were carried out at room temperature for 2 hr and spotted onto P81 ionexchange cellulose chromatography paper (Reaction Biology). Filter paper was washed in 0.75% phosphoric acid to remove unincorporated ATP. The percent remaining kinase activity relative to a vehicle-containing (DMSO) kinase reaction was calculated for each kinase/inhibitor pair. IC50 values were calculated using Prism 5 (GraphPad).

Setting [1] is: human MEK1 (K97R) substrate 3 micromolar, ATP 10 micromolar, 10-dose IC50 mode.

Where two headings read alike, the source gives them in different places.

human RAF1, sequence (P04049 whole entry): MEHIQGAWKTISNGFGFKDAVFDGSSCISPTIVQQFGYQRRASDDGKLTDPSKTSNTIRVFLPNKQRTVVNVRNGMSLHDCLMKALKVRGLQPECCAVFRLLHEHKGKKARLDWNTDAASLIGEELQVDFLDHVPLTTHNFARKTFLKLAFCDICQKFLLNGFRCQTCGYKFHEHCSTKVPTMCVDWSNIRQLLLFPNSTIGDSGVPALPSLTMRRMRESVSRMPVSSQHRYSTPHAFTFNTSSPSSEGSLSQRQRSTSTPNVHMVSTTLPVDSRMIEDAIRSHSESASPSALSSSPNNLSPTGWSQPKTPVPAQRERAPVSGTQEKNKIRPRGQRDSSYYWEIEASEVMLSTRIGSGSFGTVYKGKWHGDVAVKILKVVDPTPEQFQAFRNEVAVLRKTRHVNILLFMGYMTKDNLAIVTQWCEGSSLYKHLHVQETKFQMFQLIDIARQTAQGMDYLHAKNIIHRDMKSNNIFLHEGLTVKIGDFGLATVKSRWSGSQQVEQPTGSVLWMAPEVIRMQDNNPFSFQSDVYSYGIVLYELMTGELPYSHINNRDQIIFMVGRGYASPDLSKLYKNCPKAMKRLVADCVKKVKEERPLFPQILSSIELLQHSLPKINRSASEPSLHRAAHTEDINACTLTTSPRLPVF

In the case of `CNc1ncc2cc(-c3cc(NC(=O)c4ccnc(C(F)(F)F)c4)ccc3C)c(OCCO)nc2n1` [Example 70, N-[3-[7-(2-hydroxyethoxy)-2-(methylamino)pyrido[2,3-d]pyrimidin-6-yl]-4-methylphenyl]-2-(trifluoromethyl)pyridine-4-carboxamide], under setting [1], the half-maximal inhibitory concentration (IC50) – broadly, the point on the concentration scale where inhibition reaches its midpoint – is ≤ 10 nM.
Still for that read-out and setting: as for `CNc1ncc2cc(-c3cc(NC(=O)c4ccnc(C(F)(F)F)c4)cnc3C)cnc2n1` [Example 46, N-(6-methyl-5-(2-(methylamino)pyrido[2,3-d]pyrimidin-6-yl)pyridin-3-yl)-2-(trifluoromethyl)isonicotinamide], the figure is ≤ 10 nM.
In the case of `CNc1ncc2cc(-c3cc(NC(=O)c4ccnc(C(F)(F)F)c4C)ccc3C)c(C)nc2n1` [Example 41, 3-methyl-N-(4-methyl-3-(7-methyl-2-(methylamino)pyrido[2,3-d]pyrimidin-6-yl)phenyl)-2-(trifluoromethyl)isonicotinamide], the half-maximal inhibitory concentration (IC50) under setting [1] was ≤ 10 nM.
As to `CNc1ncc2cc(-c3cc(NC(=O)N4CC[C@H](SC(F)(F)F)C4)ccc3C)c(C)nc2n1` [Example 5], the IC50 is 10 to 100 nM.
Regarding `CNc1ncc2cc(-c3cc(NC(=O)N4CC[C@H](CC(F)(F)F)C4)c(F)cc3C)c(C)nc2n1` [Example 17, (R)-N-(2-fluoro-4-methyl-5-(7-methyl-2-(methylamino)pyrido[2,3-d]pyrimidin-6-yl)phenyl)-3-(2,2,2-trifluoroethyl)pyrrolidine-1-carboxamide], under setting [1], the half-maximal inhibitory concentration (IC50) was ≤ 10 nM.
With `[2H]C([2H])([2H])Nc1ncc2cc(-c3cc(NC(=O)c4ccnc(C(F)(F)F)c4)ccc3C)c(C([2H])([2H])[2H])nc2n1` [Example 75, N-(4-methyl-3-(7-(methyl-d3)-2-((methyl-d3)amino)pyrido[2,3-d]pyrimidin-6-yl)phenyl)-2-(trifluoromethyl)isonicotinamide], the IC50 was ≤ 10 nM.
`CNc1ncc2cc(-c3cc(NC(=O)N4CCn5cnc(C(F)(F)F)c5C4)ccc3C)c(C)nc2n1` [Example 24, N-(4-methyl-3-(7-methyl-2-(methylamino)pyrido[2,3-d]pyrimidin-6-yl)phenyl)-1-(trifluoromethyl)-5,6-dihydroimidazo[l,5-a]pyrazine-7(8H)-carboxamide]: the IC50 under setting [1] was ≤ 10 nM.
As for `CNc1ncc2cc(-c3cc(NC(=O)N4CCO[C@@H](C(F)(F)F)C4)c(F)cc3C)cnc2n1` [Example 62, (2R)-N-[2-fluoro-4-methyl-5-[2-(methylamino)pyrido[2,3-d]pyrimidin-6-yl]phenyl]-2-(trifluoromethyl)morpholine-4-carboxamide], under setting [1], the IC50 is ≤ 10 nM.
For the compound `CNc1ncc2cc(-c3cc(NC(=O)N4CC[C@@H](CC(F)(F)F)C4)c(F)cc3C)cnc2n1` [Example 31, (S)-N-(2-fluoro-4-methyl-5-(2-(methylamino)pyrido[2,3-d]pyrimidin-6-yl)phenyl)-3-(2,2,2-trifluoroethyl)pyrrolidine-1-carboxamide], the half-inhibitory concentration (IC50) under setting [1] was ≤ 10 nM.
In the case of `CNc1ncc2cc(-c3cc(NC(=O)c4ccnc(C(F)(F)F)c4)ccc3C)c(OC)nc2n1` [Example 68, N-[3-[7-methoxy-2-(methylamino)pyrido[2,3-d]pyrimidin-6-yl]-4-methylphenyl]-2-(trifluoromethyl)pyridine-4-carboxamide], the IC50 was ≤ 10 nM.
Turning to `Cc1ccc(NC(=O)c2ccnc(C(F)(F)F)c2)cc1-c1cc2cnc(NCCO)nc2nc1C` [Example 40, N-(3-(2-((2-hydroxyethyl)amino)-7-methylpyrido[2,3-d]pyrimidin-6-yl)-4-methylphenyl)-2-(trifluoromethyl)isonicotinamide], the IC50 under setting [1] was ≤ 10 nM.
Consider `CNc1ncc2cc(-c3cc(NC(=O)N4CCO[C@H](C(F)(F)F)C4)ccc3C)cnc2n1` [Example 57], for which the IC50 under setting [1] was ≤ 10 nM.
Turning to `CNc1ncc2cc(-c3cc(NC(=O)c4ccnc(C(F)(F)F)c4)c(F)cc3C)c(C)nc2n1` [Example 7, N-[2-fluoro-4-methyl-5-[7-methyl-2-(methylamino)pyrido[2,3-d]pyrimidin-6-yl]phenyl]-2-(trifluoromethyl) pyridine-4-carboxamide], under setting [1], the IC50 was ≤ 10 nM.
Same read-out and setting: the same measure for `CNc1ncc2cc(-c3cc(NC(=O)N4CCO[C@@H](C(F)(F)F)C4)ccc3C)c(C)nc2n1` [Example 12, (2R)-N-[4-methyl-3-[7-methyl-2-(methylamino)pyrido[2,3-d]pyrimidin-6-yl]phenyl]-2-(trifluoromethyl)morpholine-4-carboxamide]: ≤ 10 nM.
As to `CNc1ncc2cc(-c3cc(NC(=O)N4CCO[C@H](C(C)(C)C)C4)c(F)cc3C)c(C)nc2n1` [Example 22, (R)-2-(tert-butyl)-N-(2-fluoro-4-methyl-5-(7-methyl-2-(methylamino)pyrido[2,3-d]pyrimidin-6-yl)phenyl)morpholine-4-carboxamide], the concentration for half-maximal inhibition (IC50) was ≤ 10 nM.
Turning to `CNc1ncc2cc(-c3cc(NC(=O)c4ccnc(C(F)(F)F)c4)ccc3C)c(Cl)nc2n1` [Example 64, N-[3-[7-chloro-2-(methylamino)pyrido[2,3-d]pyrimidin-6-yl]-4-methylphenyl]-2-(trifluoromethyl) pyridine-4-carboxamide], the IC50 under setting [1] was ≤ 10 nM.
With `CNc1ncc2cc(-c3cc(NC(=O)c4ccnc(C(F)(F)F)c4Cl)ccc3C)c(C)nc2n1` [Example 33, 3-chloro-N-(4-methyl-3-(7-methyl-2-(methylamino)pyrido[2,3-d]pyrimidin-6-yl)phenyl)-2-(trifluoromethyl)isonicotinamide], the half-inhibitory concentration (IC50) under setting [1] is ≤ 10 nM.
Still for that read-out and setting: the same measure for `Cc1ccc(NC(=O)c2ccnc(C(F)(F)F)c2)cc1-c1cc2cnc(N)nc2nc1C` [Example 48, N-(3-(2-amino-7-methylpyrido[2,3-d]pyrimidin-6-yl)-4-methylphenyl)-2-(trifluoromethyl)isonicotinamide]: ≤ 10 nM; for `CNc1ncc2cc(-c3cc(NC(=O)c4cnnc(C(F)(F)F)c4)ccc3C)c(C)nc2n1` [Example 50, N-(4-methyl-3-(7-methyl-2-(methylamino)pyrido[2,3-d]pyrimidin-6-yl)phenyl)-6-(trifluoromethyl)pyridazine-4-carboxamide]: ≤ 10 nM.
For `CNc1ncc2cc(-c3cc(NC(=O)N4CC[C@@H](OC(F)(F)F)C4)ccc3C)c(C#N)nc2n1` [Example 78, (3R)—N-[3-[7-cyano-2-(methylamino)pyrido[2,3-d]pyrimidin-6-yl]-4-methylphenyl]-3-(trifluoromethoxy)pyrrolidine-1-carboxamide], the IC50 under setting [1] is ≤ 10 nM.
Turning to `CNc1ncc2cc(-c3cc(NC(=O)c4cc[n+]([O-])c(C(F)(F)F)c4)ccc3C)c(C)nc2n1` [Example 76, 4-([4-methyl-3-[7-methyl-2-(methylamino)pyrido[2,3-d]pyrimidin-6-yl]phenyl]carbamoyl)-2-(trifluoromethyl)pyridin-1-ium-1-olate], the IC50 under setting [1] was ≤ 10 nM.
With `[2H]C([2H])([2H])Oc1nc2nc(NC)ncc2cc1-c1cc(NC(=O)c2ccnc(C(F)(F)F)c2)ccc1C` [Example 71, N-(3-(7-(methoxy-d3)-2-(methylamino)pyrido[2,3-d]pyrimidin-6-yl)-4-methylphenyl)-2-(trifluoromethyl)isonicotinamide], the 50% inhibitory concentration (IC50) is ≤ 10 nM.
Consider `CNc1ncc2cc(-c3cc(NC(=O)N4CC[C@@H](OC(F)(F)F)C4)c(F)cc3C)cnc2n1` [Example 60, (3R)-N-[2-fluoro-4-methyl-5-[2-(methylamino)pyrido[2,3-d]pyrimidin-6-yl]phenyl]-3-(trifluoromethoxy)pyrrolidine-1-carboxamide], for which the IC50 under setting [1] is ≤ 10 nM.
In the case of `CNc1ncc2cc(-c3cc(NC(=O)N4CCO[C@H](CC(F)(F)F)C4)c(F)cc3C)c(C)nc2n1` [Example 25, (R)-N-(2-fluoro-4-methyl-5-(7-methyl-2-(methylamino)pyrido[2,3-d]pyrimidin-6-yl)phenyl)-2-(2,2,2-trifluoroethyl)morpholine-4-carboxamide], the IC50 is ≤ 10 nM.
As for `CNc1ncc2cc(-c3cc(NC(=O)N4CC[C@@H](CC(F)(F)F)C4)c(F)cc3C)c(C)nc2n1` [Example 18, (S)-N-(2-fluoro-4-methyl-5-(7-methyl-2-(methylamino)pyrido[2,3-d]pyrimidin-6-yl)phenyl)-3-(2,2,2-trifluoroethyl)pyrrolidine-1-carboxamide], the IC50 was ≤ 10 nM.
As to `CNc1ncc2cc(-c3cc(NC(=O)N4CC[C@H](OC(F)(F)F)C4)cnc3C)cnc2n1` [Example 63, (3S)-N/-[6-methyl-5-[2-(methylamino)pyrido[2,3-d]pyrimidin-6-yl]pyridin-3-yl]-3-(trifluoromethoxy)pyrrolidine-1-carboxamide], the IC50 under setting [1] was ≤ 10 nM.
The same measure, in the same setting: the same measure for `C=Cc1nc2nc(NC)ncc2cc1-c1cc(NC(=O)c2ccnc(C(F)(F)F)c2)ccc1C` [Example 65, N-[3-[7-ethenyl-2-(methylamino)pyrido[2,3-d]pyrimidin-6-yl]-4-methylphenyl]-2-(trifluoromethyl)pyridine-4-carboxamide]: ≤ 10 nM.
For the compound `CNc1ncc2cc(-c3cc(NC(=O)N4CC[C@H](OC(F)(F)F)C4)ccc3C)cnc2n1` [Example 56, 3S-N-[4-methyl-3-[2-(methylamino)pyrido[2,3-d]pyrimidin-6-yl]phenyl]-3-(trifluoromethoxy)pyrrolidine-1-carboxamide], under setting [1], the IC50 was ≤ 10 nM.
